Assay results taken from US10294262B2, “7-deazapurine nucleosides for therapeutic uses” (Institute of Organic Chemistry and Biochemistry ASCR, V.V.I., priority 2009, dated 2019).

Legend:
[1] = system: human tumor cell lines; assay: Tests A and B, all tumor cell lines together; assay type: cell-based; settings: read-out: CC50 Geometric mean all
Experimental: (§1) • 1. […] Fix one plate of each cell line with TCA. […] Discard TCA from the plates by flicking them gently. […] Store the plates at room temperature. These plates represent cell counts on day zero. • 4. […] Add 50 μL of the diluted compounds per well. […] Fix the plates with TCA. […] Discard TCA from the plates by flicking them gently. […] Leave at room temperature for 30 minutes. • 9. Flick the plates gently to discard SRB.
Plates were incubated for 5 days with tested compounds.

[2] = system: HS578; assay: Test A: Cytostatic cell culture assay (CC50), SRB, solid tumor cell lines; assay type: cell-based; settings: Homo sapiens, Hs578, 120 h, read-out: CC50 Breast HS578
Experimental: (§2) Gemcitabine is obtained from Moravek Biochemicals (Brea, Calif.)
as §1

[3] = system: NCI H23; assay: as above; assay type: cell-based; settings: Homo sapiens, NCI-H23, 120 h, read-out: CC50 Lung NCI H23
Experimental: as §2, §1

[4] = system: Du145; assay: as above; assay type: cell-based; settings: Homo sapiens, DU-145, 120 h, read-out: CC50 Prostate Du145
Experimental: as §2, §1

[5] = system: PC3; assay: as above; assay type: cell-based; settings: Homo sapiens, PC-3, 120 h, read-out: CC50 Prostate PC3
Experimental: as §2, §1

[6] = system: HCT116; assay: as above; assay type: cell-based; settings: Homo sapiens, HCT-116, 120 h, read-out: CC50 Colon HCT116
Experimental: as §2, §1

[7] = system: HCT15; assay: as above; assay type: cell-based; settings: Homo sapiens, HCT-15, 120 h, read-out: CC50 Colon HCT15
Experimental: as §2, §1

[8] = system: A549; assay: as above; settings: Homo sapiens, A549, 120 h, read-out: CC50 Lung A549
From the text: Test A: Cytostatic Cell Culture Assay (CC50) for Solid Tumor Cell Lines
This assay is based on quantification of cell mass determination by a colorimetric detection of the cell associated proteins. The assay relies on the ability of sulforhodamine B (SRB) to bind to protein components of cells that have been fixed to tissue-culture plates by trichloroacetic acid (TCA). SRB is a bright-pink aminoxanthene dye with two sulfonic groups that bind to basic amino-acid residues under mild acidic conditions, and dissociate under basic conditions. As the binding of SRB is stochiometric, the amount of dye extracted from stained cells is directly proportional to the cell mass.
Cell lines: All cell lines are obtained from ATCC (Manassas, Va.). Cultivation media containing Glutamax, and trypsin are purchased from Invitrogen (Carlsbad, Calif.). Doxorubicin, Tubercidin, Clofarabine, TCA and SRB are from Sigma-Aldrich (St. Louis, Mo.). Gemcitabine is obtained from Moravek Biochemicals (Brea, Calif.)
• 1. Trypsinize the sub-confluent cells, count them, and adjust the cell concentrations according to the cell counts listed in Table 1. • 2. Distribute the cells into the 96-well plates in 150 μL of media. Incubate the plates overnight in humidified CO2 incubator at 37° C. • 3. Fix one plate of each cell line with TCA. Discard the cultivation media from the plates by flicking them gently and add 100 μL cold 10% (vol/vol) TCA to each well. Incubate the plates at 4 degree refrigerator for 1 hour. Discard TCA from the plates by flicking them gently. Rinse plates four times in a washing basin containing tap water. Store the plates at room temperature. These plates represent cell counts on day zero. • 4. Prepare a set of medium solutions containing various concentrations of tested compounds by making 5-fold serial dilutions in 96-well plate. Add 50 μL of the diluted compounds per well. Include controls with untreated cells and cells treated with doxorubicin, tubercidin, clofarabine and/or gemcitabine. • 5. Incubate the plates for 5 days at 37° C. • 6. Fix the plates with TCA. Discard the cultivation media from the plates by flicking them gently and add 100 μL cold 10% (vol/vol) TCA to each well. Incubate the plates at 4 degree refrigerator for 1 hour. Discard TCA from the plates by flicking them gently. Rinse plates four times in a washing basin containing tap water. • 7. Remove excess water by tapping the plates face down, gently on a paper towel. Allow the plates to air-dry at room temperature. • 8. Add 100 μL of 0.057% SRB solution in 1% (vol/vol) acetic acid to each well of the plates fixed with TCA on day zero and five. Leave at room temperature for 30 minutes. • 9. Flick the plates gently to discard SRB. Rinse the plates four times with 1% (vol/vol) Acetic Acid. • 10. Store the plates at 37° incubator to facilitate faster drying. • 11. Once the plates are completely dry, add 200 μL of 10 mM Tris base solution (pH 10.5) to each well. Leave at room temperature for 30 minutes for SRB to solubilize. • 12. Measure the OD at 500 nm in a microplate reader. • 13. Calculate the percentage of cell-growth inhibition using the next formula: % of control cell growth=100×(ODsample−mean ODday0)/(ODneg control−mean ODday0). For CC50 determination, plot a dose-response curves between the compound concentration and percent of growth inhibition. CC50 values can be derived by fitting dose-response curves using sigmoidal dose response equation.

[9] = system: MT-4 T-lymphoid cell line; assay: Test B: Cytostatic cell culture assay (CC50), CellTiter Glo, lymphoid tumor cell lines; settings: Homo sapiens, MT4, 120 h, read-out: CC50 T-lymphoid MT-4
Experimental: Test B: Cytostatic Cell Culture Assay (CC50) for Lymphoid Tumor Cell Lines
This test is typically performed with cell lines that are derived from hematological tumors and grow in suspension. An example of such cell line is human MT-4 T-lymphoid cell line used for the determination of cytostatic activity of tested compounds. […] Cells were passaged in suspension twice a week and maintained at densities below 500,000 cells/mL. For CC50 determination, cells were seeded into 384-well plates at 2,000 cells/well in 20 μL of culture medium. Compounds were serially diluted in culture medium and added in triplicate to a final assay volume of 40 μL/well. Plates were incubated for 5 days with tested compounds. At the end of incubation, cell viability was determined by addition of 40 μL of CellTiter Glo reagent followed by a luminescence read-out.
Data analysis and CC50 value calculations were done using GraphPad Prism software (GraphPad Software, San Diego, Calif.) by applying nonlinear regression.

[10] = system: BT549; assay: Test A: Cytostatic cell culture assay (CC50), SRB, solid tumor cell lines; assay type: cell-based; settings: Homo sapiens, BT-549, 120 h; BT549 breast tumor cells, 5 days, SRB; read-out: CC50 Breast BT549
Experimental: as §2, §1

SMILES | CC50 [1] [nM] | CC50 [2] [nM] | CC50 [3] [nM] | CC50 [4] [nM] | CC50 [5] [nM] | CC50 [6] [nM] | CC50 [7] [nM] | CC50 [8] [nM] | CC50 [9] [nM] | CC50 [10] [nM] | melting point [°C]
Nc1nc(Cl)nc2c1ncn2[C@@H]1O[C@H](CO)[C@@H](O)[C@@H]1F [Clofarabine, reference compound] | 116 | 1240 | 40 | 125 | 63 | 106 | 180 | 86 | 51 | – | –
COc1ccc(-c2cn([C@@H]3O[C@H](CO)[C@@H](O)[C@H]3O)c3ncnc(N)c23)cc1 [Compound 2b, 4-Amino-5-(4-methoxyphenyl)-7-(β-D-ribofuranosyl)-7H-pyrrolo[2,3-d]pyrimidine] | 768 | 811 | 856 | 152 | 1110 | 633 | 544 | 701 | 4300 | – | –
Nc1ncnc2c1c(-c1ccco1)cn2[C@@H]1O[C@H](CO)[C@@H](O)[C@H]1O [Compound 2f, 4-Amino-5-(furan-2-yl)-7-(β-D-ribofuranosyl)-7H-pyrrolo[2,3-d]pyrimidine] | 25.6 | 17 | 294 | 19 | 4 | 48 | 3 | 35 | 86 | – | –
Nc1ncnc2c1c(-c1cccs1)cn2[C@@H]1O[C@H](CO)[C@@H](O)[C@H]1O [Compound 2g, 4-Amino-7-(β-D-ribofuranosyl)-5-(thiophen-2-yl)-7H-pyrrolo[2,3-d]pyrimidine] | 22.6 | 12 | 3.7 | 133 | 1620 | 2.6 | 11 | 7 | 35 | – | –
Nc1ncnc2c1c(-c1ccc[nH]1)cn2[C@@H]1O[C@H](CO)[C@@H](O)[C@H]1O [Compound 2k, 4-Amino-5-(1H-pyrrol-2-yl)-7-(β-D-ribofuranosyl)-7H-pyrrolo[2,3-d]pyrimidine] | 128 | 113 | 333 | – | 87.8 | 65.2 | – | 160 | – | 129 | 205 to 207
Nc1ccn([C@@H]2O[C@H](CO)[C@@H](O)C2(F)F)c(=O)n1 [Gemcitabine, reference compound] | 2.4 | 1 | 2 | 3 | 6 | 2 | 3 | 7 | 2 | 1 | –
Nc1ncnc2c1ccn2[C@@H]1O[C@H](CO)[C@@H](O)[C@H]1O [Tubercidin, reference compound] | 10.3 | 98 | 11 | 18 | 48 | 1 | 11 | 1 | 21 | – | –
